Data as given in the NIST ThermoML archive (doi:10.1016/j.jct.2016.02.016).

How the values were obtained:
[1] = xn = mol fraction of the nth substance listed; details: 303.15 K, 100 kPa, Liquid; for speed of sound: Frequency=3 MHz, Sing-around technique in a fixed-path interferometer; for mass density: Vibrating tube method
[2] = refractive index (Na D-line) (dimensionless); xn = mol fraction of the nth substance listed; details: 100 kPa, Liquid, Standard Abbe refractometry

CCCC(C)=O [pentan-2-one] + CN(C)C=O
[1]
Details | mass density [kg/m3] | speed of sound [m/s]
x2 = 0 | 796.73 | –
x2 = 0.0581 | 803.204 | –
x2 = 0.1088 | 808.974 | –
x2 = 0.16 | 815.007 | –
x2 = 0.2044 | 820.314 | –
x2 = 0.262 | 827.319 | –
x2 = 0.3046 | 832.689 | –
x2 = 0.3506 | 838.634 | –
x2 = 0.4014 | 845.319 | –
x2 = 0.482 | 856.31 | –
x2 = 0.5006 | 858.884 | –
x2 = 0.5407 | 864.591 | –
x2 = 0.5989 | 873.078 | 1323.9
x2 = 0.6467 | 880.175 | 1336.3
x2 = 0.6949 | 887.598 | 1349.2
x2 = 0.7518 | 896.616 | 1364.8
x2 = 0.8007 | 904.558 | 1378.6
x2 = 0.8527 | 913.274 | 1393.6
x2 = 0.8991 | 921.307 | 1407.5
x2 = 0.9485 | 929.946 | 1422.2

[2]
Details | refractive index
293.15 K, x2 = 0 | 1.39026
293.15 K, x2 = 0.056 | 1.39208
293.15 K, x2 = 0.1141 | 1.39408
293.15 K, x2 = 0.1531 | 1.39541
293.15 K, x2 = 0.2063 | 1.39735
293.15 K, x2 = 0.2588 | 1.39918
293.15 K, x2 = 0.3089 | 1.40106
293.15 K, x2 = 0.3594 | 1.40295
293.15 K, x2 = 0.4006 | 1.40453
293.15 K, x2 = 0.4488 | 1.40643
293.15 K, x2 = 0.4999 | 1.40845
293.15 K, x2 = 0.5466 | 1.41036
293.15 K, x2 = 0.5976 | 1.41245
293.15 K, x2 = 0.6581 | 1.41495
293.15 K, x2 = 0.6992 | 1.41668
293.15 K, x2 = 0.7528 | 1.41906
293.15 K, x2 = 0.8029 | 1.42129
293.15 K, x2 = 0.8461 | 1.42325
293.15 K, x2 = 0.9017 | 1.42583
293.15 K, x2 = 0.9496 | 1.42811
298.15 K, x2 = 0 | 1.38793
298.15 K, x2 = 0.0568 | 1.38979
298.15 K, x2 = 0.1 | 1.39128
298.15 K, x2 = 0.1526 | 1.3931
298.15 K, x2 = 0.1895 | 1.39442
298.15 K, x2 = 0.2545 | 1.3967
298.15 K, x2 = 0.3298 | 1.39955
298.15 K, x2 = 0.3502 | 1.40029
298.15 K, x2 = 0.3956 | 1.40203
298.15 K, x2 = 0.4567 | 1.40441
298.15 K, x2 = 0.5084 | 1.4065
298.15 K, x2 = 0.557 | 1.40855
298.15 K, x2 = 0.6022 | 1.41039
298.15 K, x2 = 0.6448 | 1.41217
298.15 K, x2 = 0.7117 | 1.41498
298.15 K, x2 = 0.7511 | 1.41672
298.15 K, x2 = 0.8027 | 1.41905
298.15 K, x2 = 0.849 | 1.42117
298.15 K, x2 = 0.9019 | 1.42364
298.15 K, x2 = 0.9429 | 1.42557
303.15 K, x2 = 0 | 1.38523
303.15 K, x2 = 0.0681 | 1.38748
303.15 K, x2 = 0.113 | 1.38906
303.15 K, x2 = 0.1576 | 1.39062
303.15 K, x2 = 0.1979 | 1.39212
303.15 K, x2 = 0.2343 | 1.39347
303.15 K, x2 = 0.3128 | 1.39635
303.15 K, x2 = 0.3603 | 1.3982
303.15 K, x2 = 0.4156 | 1.40034
303.15 K, x2 = 0.4485 | 1.40167
303.15 K, x2 = 0.4954 | 1.40355
303.15 K, x2 = 0.5505 | 1.4058
303.15 K, x2 = 0.5986 | 1.40783
303.15 K, x2 = 0.6407 | 1.40954
303.15 K, x2 = 0.6952 | 1.41187
303.15 K, x2 = 0.7401 | 1.41378
303.15 K, x2 = 0.7992 | 1.41643
303.15 K, x2 = 0.8559 | 1.41908
303.15 K, x2 = 0.8994 | 1.42109
303.15 K, x2 = 0.9411 | 1.42312
